Measurements: PMC12217469 (Nature Communications, 2025)
Residues, ends and D or L forms follow the SMILES beside them. *: point of attachment. Cbz = O=C(OCc1ccccc1)*

Tested on: H2B
Assay: Western blotting of H2B degradation, HeLa cells
Format: cell-based

| Structure (SMILES) | effect on H2B degradation by Tz-MitoFlag (100 μM, 24 h) and TP2T (10 nM, 24 h) (coincubated or pretreated with MG132 10 μM) | effect on H2B degradation by Tz-MitoFlag (100 μM, 24 h) and TP2T (10 nM, 24 h) (coincubated or pretreated with Thalidomide 10 μM) |
| --- | --- | --- |
| CC(C)C[C@@H](C=O)NC(=O)[C@H](CC(C)C)NC(=O)[C@H](CC(C)C)NC(=O)OCc1ccccc1 [MG132] (Cbz-Leu-Leu-Leu-aldehyde) | no degradation of H2B | – |
| O=C1CCC(N2C(=O)c3ccccc3C2=O)C(=O)N1 (centres unmarked) [Thalidomide, thalidomide] | – | inhibited |
